In patent publication US12275734B1, “Pleuromutilin onium salt derivative containing a 3H-imidazo[4,5-c]pyridine side chain, and a preparation method and application thereof” (SHAANXI UNIVERSITY OF SCIENCE AND TECHNOLOGY, priority 2024, dated 2025):

Key:
[1] = test system: MRSA (ATCC 33591); assay: Intracellular and extracellular ATP concentration; assay type: cell-based, S. aureus
Procedure: (§1) The intracellular and extracellular ATP levels refer to the concentration of ATP inside and outside the cell. Under normal physiological conditions, ATP is mainly produced inside the cell and released outside the cell when needed. This dynamic change is very important for maintaining normal biological homeostasis.
(§2) Determine the intracellular ATP concentration using the ATP assay kit:
(§3) Secondly, the bacterial suspension was treated with different concentrations of compound i, and a blank control group was set up. Next, the samples were incubated at 37° C. and the cells were lysed by ultrasound to extract ATP. After that, the supernatant was collected by high-speed centrifugation and ATP detection was performed, which involved adding the detection solution and compound to a 96-well plate and using a reader to measure the light intensity. Finally, data analysis and statistics were performed to evaluate the effects of the compound by comparing the ATP levels of different treatment groups.

[2] = test system: E. coli (ATCC 25922); assay: Intracellular and extracellular ATP concentration; assay type: cell-based
Procedure: as §1, §2, §3

[3] = test system: MRSA (ATCC 33591); assay: Bacterial intracellular pH (cFDA-SE); assay type: cell-based, S. aureus; conditions: control 6.57±0.10
Procedure: The definition of pHin is based on the ratio of the pH-sensitive wavelength (490 nm) to the pH-insensitive wavelength (440 nm).
First, prepare fluorescently labeled bacterial cells. MRSA and E. coli bacteria were removed from the culture in the logarithmic growth phase, and after high-speed centrifugation and washing with HEPES buffer, the bacteria were labeled with carboxyfluorescein succinimidyl ester (cFDA-SE), and the fluorescent dye was bound to the cells by incubation.
Next, PBS buffer was used to wash and remove the unbound fluorescent dye, and then the cells were suspended in the buffer and stored in a low-temperature environment. The second step was to determine the intracellular pH. The fluorescently labeled cell suspension was added to a test tube containing different concentrations of compound i and transferred to a black opaque 96-well plate for incubation. The fluorescence value was measured at specific excitation and emission wavelengths using a full-wavelength scanning multifunctional reader to calculate the intracellular pH. The last step is the calibration of the intracellular pH. The standard curve was determined using buffer solutions with different pH values to ensure accurate determination of the pH value inside the bacterial cells. […]

[4] = test system: MRSA (ATCC 33591); assay: Bacterial extracellular conductivity; assay type: cell-based, S. aureus; conditions: 1×MIC and 2×MIC, vs blank control
Excerpt: Changes in conductivity can reflect the permeability and integrity of the cell membrane. When the cell membrane is damaged or the permeability increases, the flow of ions inside and outside the cell will increase, resulting in an increase in conductivity. In the fields of biology and cell biology, conductivity measurements are often used to assess changes in cell membrane integrity.
MRSA and E. coli cells in the logarithmic growth phase were first resuspended after high-speed centrifugation and repeated PBS buffer washing and adjusted to the appropriate optical density. Next, different concentrations of compound i (1×MIC and 2×MIC) were added to the cell suspension, and a blank control group was set. All samples were incubated at 37° C. and sampled at set time points (0, 1, 2, 4, 6, and 8 hours). […] This series of operations helps to reveal the specific mechanism of action of compound i on bacterial growth and cell structure.

[5] = test system: MRSA (ATCC 33591); assay: Biofilm formation, crystal violet staining; assay type: cell-based, S. aureus
Procedure: Quantification of biofilm using crystal violet staining:
MRSA and E. coli cells were first adjusted to the logarithmic growth phase and diluted to […]. […] A blank control group without compound addition was set up. After incubation, the suspension was discarded and washed three times with 10 mM PBS buffer, and the biofilm was fixed with methanol for 15 minutes. After removing the methanol, 200 μL of 0.1% crystal violet was added to each well for staining for 30 minutes, and then the crystal violet was discarded and washed again with PBS three times. After the well plate was dried, 200 μL of 95% ethanol was added to each well to dissolve the fixed dye. […] This process allows for quantitative analysis of the ability of different concentrations of compound i to form biofilms.

[6] = test system: MRSA (ATCC 33591); assay: Cell membrane integrity, propidium iodide staining; assay type: cell-based, S. aureus
Procedure: The steps for dead cell staining using propidium iodide are as follows:
At the beginning of the experiment, samples were taken from MRSA and E. coli in the logarithmic growth phase, centrifuged at 8000 rpm for 5 minutes and washed twice with 0.85% NaCl solution to remove the culture medium and other possible interfering substances. Afterwards, the bacteria were resuspended in 0.85% NaCl solution and the concentration was adjusted to approximately 1×10^8 CFU/mL.
[…] After incubation, in order to mark and distinguish dead cells, 15 μM propidium iodide solution was added to each sample and incubated in the dark for 15 minutes. PI is a fluorescent dye that binds to DNA and can only penetrate into dead cells with damaged cell membranes.
Finally, the samples were observed using a fluorescence microscope or a confocal laser scanning microscope. By setting the appropriate fluorescence channel (excitation wavelength 535 nm, emission wavelength 617 nm), the red fluorescence emitted by dead cells can be detected. In this way, the effect of compound i on the lethality of bacterial cells can be intuitively evaluated and recorded, providing an experimental basis for further drug research.

[7] = test system: MRSA (ATCC 33591); assay: Cell membrane potential, DiBAC4 (3) probe; conditions: 1×MIC to 8×MIC, vs blank control
[8] = test system: E. coli (ATCC 25922); assay: Cell membrane potential, DiBAC4 (3) probe; conditions: 1×MIC to 8×MIC, vs blank control

C=C[C@]1(C)C[C@@H](OC(=O)CSc2nc3cc[n+](Cc4ccc(C)cc4)cc3[nH]2)[C@]2(C)[C@H](C)CC[C@]3(CCC(=O)[C@H]32)[C@@H](C)[C@@H]1O [Compound i, 5-(4-methylbenzyl)-2-((2-(((3aR,4R,5R,7S,8S,9R,9aS,12R)-8-hydroxy-4,7,9,12-tetramethyl-3-oxo-7-vinyldecahydro-4,9a-propancyclopenta[8]cyclo-5-yl)oxy)-2-oxoethyl)thio)-3H-imidazo[4,5-C]pyridine-5-ium]
extracellular fluorescence intensity (ATP) increased by ([1]; 1×MIC): 3.27 times
intracellular fluorescence intensity (ATP) decreased by ([1]; 1×MIC): 51.92%
extracellular fluorescence intensity (ATP) increased by ([1]; 2×MIC): 2.28 times
intracellular fluorescence intensity (ATP) decreased by ([1]; 2×MIC): 74.76%
extracellular fluorescence intensity (ATP) increased by ([2]; 1×MIC): 4.34 times
intracellular fluorescence intensity (ATP) decreased by ([2]; 1×MIC): 50.75%
extracellular fluorescence intensity (ATP) increased by ([2]; 2×MIC): 5.35 times
intracellular fluorescence intensity (ATP) decreased by ([2]; 2×MIC): 67.87%
intracellular pH after treatment ([3]; 1×MIC): 4.66±0.12
intracellular pH after treatment ([3]; 2×MIC): 2.96±0.09
extracellular conductivity [4]: increased
inhibition rate of biofilm formation ([5]; 1×MIC): 51.33%
inhibition rate of biofilm formation ([5]; 8×MIC): 86.68%
cell membrane integrity, propidium iodide red fluorescence ([6]; 1×MIC): obvious red fluorescence was observed
cell membrane integrity, propidium iodide red fluorescence ([6]; 2×MIC): red fluorescence was significantly enhanced
membrane potential, DiBAC4 (3) fluorescence intensity [7]: significant dose-dependent increase
membrane potential, DiBAC4 (3) fluorescence intensity [8]: dose-dependent increase in fluorescence intensity
